From PubChem BioAssay AID2060499 (Molecular Pharmacology Branch, DTP, NCI, 2025) come the findings set out here.

In general, viability, T/C refers to the ratio of treated to control. In general, pIC50 refers to the negative decadic logarithm of the IC50, by convention in mol/L.

In the assay the test system is 777334-354-R2-J4-PDC tumor spheroids with HUVEC/MSC, viability. In words: Anticancer human tumor 777334-354-R2-J4-PDC patient-derived pancreatic adenocarcinoma cell line growth inhibition [GQUAD]. As to conditions: for viability, T/C: stronger effect = lower value. The text has this:
DNA G-quadruplex Stabilizer Agents in Combinations in Complex Spheroids
A high-throughput screen of multi-cell type tumor spheroids was designed to identify active combinations of DNA G-quadruplex stabilizer agents and targeted small molecules. Complex spheroids include a stromal component modeled by human endothelial cells (HUVEC) and fibroblasts modeled by human mesenchymal stem cells (MSCs). The concentration ranges selected for each drug and investigational agent were based upon clinically achievable concentrations if the clinical Cmax of the agent was known.
Compounds. The drugs and investigational agents: pidnarulex (CX-5461; NSC782164), APTO-253 (NSC789042), BRACO-19 (NSC847499), peposertib (NSC802822), ceralasertib (NSC780249), elimusertib (NSC800525), camonsertib (NSC841442), AZD-1390 (NSC803789), olaparib (NSC753686), talazoparib (NSC767125), ART-558 (NSC835418), sotorasib (NSC818433), MRTX-1133 (NSC836407), SN-38 (NSC673596), topotecan (NSC609699), etoposide (NSC141540), doxorubicin (NSC123127), gemcitabine (NSC613327), 5-fluorouracil (NSC19893), paclitaxel (NSC125973), vemurafenib (NSC761431), panobinostat (NSC761190), R-306465 (JNJ-16241199; NSC773264), adavosertib (NSC754352), TP-3654 (NSC805149), carboplatin (NSC241240), KSQ-4279 (NSC840948), and staurosporine (NSC755774) were obtained from the National Cancer Institute (NCI) Developmental Therapeutics Program Chemical Repository (34). The FDA-approved anticancer drug set is available from the NCI Developmental Therapeutics Program. […] The stock solutions were prepared in dimethyl sulfoxide (DMSO, Sigma-Aldrich, St. Louis, MO, cat. D2650) at 800-fold the tested concentration and stored at -70 degrees C prior to their use. All drugs and investigational agents were tested over a range starting from a high concentration at or near the clinical Cmax and decreasing in half-log increments. If the clinical Cmax for an agent had not been determined, the highest concentration tested was 10 microM.
2.3 Cell Culture. All cells were maintained in an incubator at 37 degrees C and 5% CO2 with 95% humidity. The PDC lines were cultured according to standard operating procedures established by the NCI PDMR. All PDCs were thawed and cultured in Matrigel-coated flasks prepared with a working solution of 1X Ham's F-12 nutrient mix, without supplementation (Invitrogen, cat. 11765054), 100 U/mL penicillin-streptomycin (Invitrogen, cat. 15140122), and 2.5% Matrigel (Corning Inc., cat. 354248) for the first three passages. The 857933-349-R-J2-PDC line was cultured in 6C/Colon 1B media, which includes advanced DMEM/F-12 (Thermo Fisher Scientific, cat. 12634028), 10 mM HEPES (Thermo Fisher Scientific, cat. 15630080), 1X GlutaMAX supplement (Thermo Fisher Scientific, cat. 35050061), 0.1 mg/mL primocin (InvivoGen, cat. ant-pm-2), 10% defined fetal bovine serum, heat inactivated (HyClone Laboratories Inc., cat. SH30070.03HI), 50% L-WRN conditioned media (ATCC, cat. CRL-3276), 1.25 mM N-Acetyl-L-cysteine (Sigma-Aldrich, cat. A9165), 10 mM nicotinamide (Sigma-Aldrich, cat. N0636), 1X B-27 supplement (Thermo Fisher Scientific, cat. 17504044), 1X N-2 supplement (Thermo Fisher Scientific, cat. 17502048), 10 microM Y-27632 dihydrochloride (Tocris Bioscience, cat. 1254), and 50 ng/mL human EGF recombinant protein (Thermo Fisher Scientific, cat. PHG0311). The 485176-168-R4-J1-PDC line was cultured in Panc media, which includes all 6C/Colon 1B media components plus 100 ng/mL human FGF-10 (Thermo Fisher Scientific, cat. 100-26), 500 nM SB-431542 (Selleckchem, cat. S1067), and gastrin (Tocris, cat. 3006).
[…]

pIC50: −log10 of the molar value. Where “and” joins values, the source holds several entries; their conditions need not be identical. Equal values may be shown once.
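Further: spheroids exposed to compounds for 7 days before readout.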

As to `C=CC(=O)N1CCN(c2nc(=O)n(-c3c(C)ccnc3C(C)C)c3nc(-c4c(O)cccc4F)c(F)cc23)C(C)C1` (stereo not given), the viability, T/C (compound 0.0316 µM) is 87.7% and 105% and 106%; the viability, T/C (compound 0.1 µM) was 103% and 97.4% and 81.4%; the viability, T/C (compound 0.316 µM) is 95.8% and 89.4% and 109%; the viability, T/C (compound 1 µM) was 96.2% and 111% and 105%; the viability, T/C (compound 3.16 µM) is 113% (2×) and 100%; the viability, T/C (compound 10 µM) was 115% and 100% and 101%. Further, the pIC50 (curve of compound) is less than 5.00.
Turning to `CC(=O)O[C@H]1C(=O)[C@@]2(C)[C@H]([C@H](OC(=O)c3ccccc3)[C@]3(O)C[C@H](OC(=O)[C@H](O)[C@@H](NC(=O)c4ccccc4)c4ccccc4)C(C)=C1C3(C)C)[C@]1(OC(C)=O)CO[C@@H]1C[C@@H]2O`, the viability, T/C reads like this: (compound 0.0316 µM) 78.3% and 74% and 80.3%; (compound 0.1 µM) 61.3% and 56% and 57.1%; (compound 0.316 µM) 47.8% and 50% and 43.4%; (compound 1 µM) 46% and 46.2% and 44.1%; (compound 3.16 µM) 45.2% and 46.1% and 39.9%; (compound 10 µM) 47.9% and 45% and 51.3%. In addition, for the setting “curve of compound”, the pIC50 was 6.59 and 6.56 and 6.71.
Take `CC(C)n1c(=O)n(C)c2cnc3cc(F)c(-c4ccc(OCCCN5CCCCC5)nc4)cc3c21`: the viability, T/C reads like this: (compound 0.0316 µM) 105% and 94.1% and 104%; (compound 0.1 µM) 106% and 95% and 101%; (compound 0.316 µM) 113% (2×) and 111%; (compound 1 µM) 104% and 99.3% and 108%; (compound 3.16 µM) 110% and 98.5% and 112%; (compound 10 µM) 101% and 94.6% and 86.2%. Also, the pIC50 (curve of compound) is less than 5.00.
For the compound `CC1COCCN1c1cc(-c2ccnn2C)c2ccnc(-c3ccn[nH]3)c2n1` (stereo not given), the viability, T/C is, setting by setting: (compound 0.0316 µM) 94.2% and 88.2% and 75%; (compound 0.1 µM) 73.7% and 75.3% and 83.1%; (compound 0.316 µM) 65.4% and 62.4% and 50.8%; (compound 1 µM) 47.7% and 49.3% and 49.1%; (compound 3.16 µM) 37.1% and 41.5% and 48.4%; (compound 10 µM) 26.8% and 33.3% and 28.8%. The negative logarithm of the IC50 (pIC50) (curve of compound) was 6.05 and 5.99 and 5.95.
For `CC1COCCN1c1cc(C2(O)CC3CCC(C2)O3)c2cnn(-c3ccn[nH]3)c2n1` (stereo not given), the viability, T/C runs as follows: (compound 0.0316 µM) 93.3% and 104% and 95%; (compound 0.1 µM) 76.1% and 79.5% and 78.4%; (compound 0.316 µM) 52.4% and 54.4% and 51.5%; (compound 1 µM) 39.1% and 38.5% and 37.8%; (compound 3.16 µM) 30.1% and 36.1% and 34.6%; (compound 10 µM) 20.1% and 19.8% and 21.7%. Also, under “curve of compound”, the negative-log IC50 (pIC50) is 6.35 and 6.29 and 6.36.
As to `CC1COCCN1c1cc(C2(S(C)(=N)=O)CC2)nc(-c2ccnc3[nH]ccc23)n1` (stereo not given), the viability, T/C was 112% and 90.9% and 98.4% (compound 0.0316 µM); 106% (2×) and 86.8% (compound 0.1 µM); 105% and 99.7% and 115% (compound 0.316 µM); 105% and 84% and 101% (compound 1 µM); 89.7% and 86.5% and 112% (compound 3.16 µM); 63% and 58.7% and 63.3% (compound 10 µM). Also, the pIC50 (curve of compound) was less than 5.00.
For `CC[C@@]1(O)C(=O)OCc2c1cc1n(c2=O)Cc2cc3c(CN(C)C)c(O)ccc3nc2-1`, the viability, T/C runs as follows: (compound 0.000999 µM) 102% and 101% and 87.9%; (compound 0.00316 µM) 98.6% and 112% and 91.4%; (compound 0.00999 µM) 95.8% and 97.9% and 93.1%; (compound 0.0316 µM) 87.9% and 83.3% and 90.2%; (compound 0.0999 µM) 68.3% and 59.5% and 61.7%; (compound 0.316 µM) 39.7% and 35.4% and 42.7%. For the same compound, where the note is “curve of compound”, the negative logarithm of the IC50 (pIC50) was 6.68 and 6.81 and 6.69.
Take `CCc1c2c(nc3ccc(O)cc13)-c1cc3c(c(=O)n1C2)COC(=O)[C@]3(O)CC`: the viability, T/C is 87.3% and 77.7% and 87.8% (compound 0.000999 µM); 62.7% and 59.7% and 52.4% (compound 0.00316 µM); 38% and 36% and 36.3% (compound 0.00999 µM); 24% and 23.4% and 23.9% (compound 0.0316 µM); 15.9% and 15.4% and 13.3% (compound 0.0999 µM); 8.77% and 9.22% and 10.1% (compound 0.316 µM). Further, the negative logarithm of the IC50 (pIC50) (curve of compound) is 8.24 and 8.30 and 8.38.
Take `CN(C)c1ccc(Nc2c3ccc(NC(=O)CCN4CCCC4)cc3nc3cc(NC(=O)CCN4CCCC4)ccc23)cc1`: the viability, T/C (compound 0.0316 µM) is 98.1% [middle of 12 runs]; the viability, T/C (compound 0.1 µM) was 101% [middle of 12 runs]; the viability, T/C (compound 0.316 µM) was 94.1% [middle of 12 runs]; the viability, T/C (compound 1 µM) was 94.9% [middle of 12 runs]; the viability, T/C (compound 3.16 µM) was 90.3% [middle of 12 runs]; the viability, T/C (compound 10 µM) was 81.3% [middle of 12 runs]. Also, the pIC50 (compound alone, run of 03/26/2024) was less than 5.00.
Take `COc1cc(C2c3cc4c(cc3C(OC3OC5COC(C)OC5C(O)C3O)C3COC(=O)C23)OCO4)cc(OC)c1O` (stereo not given): the viability, T/C is, setting by setting: (compound 0.0316 µM) 94.6% and 85% and 95.3%; (compound 0.1 µM) 88.4% and 97.9% and 91.6%; (compound 0.316 µM) 88.8% and 89.8% and 94.8%; (compound 1 µM) 71.9% and 74.2% and 72.8%; (compound 3.16 µM) 69.3% and 64% and 61.6%; (compound 10 µM) 41.3% and 38.2% and 35.7%. The pIC50 (curve of compound) was 5.17 and 5.24 and 5.30.
